The values below come from US7829568B2, “Substituted 5,6,7,8-tetrahydroimidazo[1,2-a]pyridin-2-ylamine compounds and their use for producing drugs” (Gruenenthal GmbH, priority 2005, dated 2010).

For the test, the system named is batrachotoxin (BTX) binding site of the sodium channel. Description: Affinity to the batrachotoxin (BTX) binding site of the sodium channel. The note with it: [3H]-batrachotoxinin A20 α-benzoate 10 nM; synaptosomes from rat cerebral cortex; test concentration not given. Also on record: species or system rat.

In the case of `CN(C(=O)c1cccc(Cl)c1)c1nc2n(c1C(=O)NC1CCCCC1OCc1ccccc1)CCCC2` (stereo not shown) [Example 67, 2-[(3-chloro-benzoyl)-methyl-amino]-5,6,7,8-tetrahydro-imidazo[1,2-a]pyridine-3-carboxylic acid (2-benzyloxy-cyclohexyl)-amide], the “BTX inhibition (rat) (% inhibition)” value is on record as 51%.
The same measure for `CN(C(=O)c1cccc2ccccc12)c1nc2n(c1C(=O)NCCc1ccc(Oc3ccccc3)cc1)CCCC2` [Example 68, 2-[methyl-(naphthalene-1-carbonyl)-amino]-5,6,7,8-tetrahydro-imidazo[1,2-a]pyridine-3-carboxylic acid [2-(4-phenoxy-phenyl)-ethyl]-amide]: 87%.
The same measure for `CCCCN(C(=O)c1cccc(Cl)c1)c1nc2n(c1C(=O)NCCc1c[nH]c3c(C)cccc13)CCCC2` [Example 69, 2-[butyl-(3-chloro-benzoyl)-amino]-5,6,7,8-tetrahydro-imidazo[1,2-a]pyridine-3-carboxylic acid [2-(7-methyl-1H-indol-3-yl)-ethyl]-amide]: 48%; for `CN(C(=O)c1cccc(Cl)c1)c1nc2n(c1C(=O)NCCc1cccc(C(F)(F)F)c1)CCCC2` [Example 71, 2-[(3-chloro-benzoyl)-methyl-amino]-5,6,7,8-tetrahydro-imidazo[1,2-a]pyridine-3-carboxylic acid [2-(3-trifluoromethyl-phenyl)-ethyl]-amide]: 36%.
As for `CCCCN(C(=O)c1cccc(Cl)c1)c1nc2n(c1C(=O)N1CCN(c3ccccn3)CC1)CCCC2` [Example 72, N-butyl-3-chloro-N-[3-(4-pyridin-2-yl-piperazine-1-carbonyl)-5,6,7,8-tetrahydro-imidazo[1,2-a]pyridin-2-yl]-benzamide], the “BTX inhibition (rat) (% inhibition)” value stood at 39%.
With `CN(C(=O)c1cccc2ccccc12)c1nc2n(c1C(=O)N(C)C1CCN(Cc3ccc(-c4ccccc4)cc3)C1)CCCC2` (stereo not shown) [Example 76, 2-[methyl-(naphthalene-1-carbonyl)-amino]-5,6,7,8-tetrahydro-imidazo[1,2-a]pyridine-3-carboxylic acid (1-biphenyl-4-ylmethyl-pyrrolidin-3-yl)-methyl-amide] the figure was 95%; with `CCCCN(C(=O)c1cccc(Cl)c1)c1nc2n(c1C(=O)NCC1COc3ccccc3O1)CCCC2` (stereo not shown) [Example 77, 2-[butyl-(3-chloro-benzoyl)-amino]-5,6,7,8-tetrahydro-imidazo[1,2-a]pyridine-3-carboxylic acid (2,3-dihydro-benzo[1,4]dioxin-2-ylmethyl)-amide], 56%.
As to `CCCCN(C(=O)c1cccc(Cl)c1)c1nc2n(c1C(=O)N1CCN(c3cccc(C(F)(F)F)c3)CC1)CCCC2` [Example 79, N-butyl-3-chloro-N-{3-[4-(3-trifluoromethyl-phenyl)-piperazine-1-carbonyl]-5,6,7,8-tetrahydro-imidazo[1,2-a]pyridin-2-yl}-benzamide], the “BTX inhibition (rat) (% inhibition)” value is listed as 83%.
Turning to `CN(C(=O)c1cccc(Cl)c1)c1nc2n(c1C(=O)N1CCC(O)(c3cccc(C(F)(F)F)c3)CC1)CCCC2` [Example 81, 3-chloro-N-{3-[4-hydroxy-4-(3-trifluoromethyl-phenyl)-piperidine-1-carbonyl]-5,6,7,8-tetrahydro-imidazo[1,2-a]pyridin-2-yl}-N-methyl-benzamide], the “BTX inhibition (rat) (% inhibition)” value turned out to be 33%.
Regarding `CN(C(=O)c1cccc(Cl)c1)c1nc2n(c1C(=O)NC1CCN(Cc3c(Cl)cccc3Cl)C1)CCCC2` (stereo not shown) [Example 83, 2-[(3-chloro-benzoyl)-methyl-amino]-5,6,7,8-tetrahydro-imidazo[1,2-a]pyridine-3-carboxylic acid [1-(2,6-dichlor-benzyl)-pyrrolidin-3-yl]-amide], the “BTX inhibition (rat) (% inhibition)” value turned out to be 80%.
For `COc1cc(Br)c(CN2CCC(NC(=O)c3c(N(C)C(=O)c4cccc(Cl)c4)nc4n3CCCC4)C2)cc1OC` (stereo not shown) [Example 84, 2-[(3-chloro-benzoyl)-methyl-amino]-5,6,7,8-tetrahydro-imidazo[1,2-a]pyridin-3-carboxylic acid [1-(2-bromo-4,5-dimethoxy-benzyl)-pyrrolidin-3-yl]-amide], the “BTX inhibition (rat) (% inhibition)” value is 87%.
In the case of `CN(C(=O)c1ccccc1)c1nc2n(c1C(=O)Nc1ccc3c(c1)OCO3)CCCC2` [Example 85, 2-(benzoyl-methyl-amino)-5,6,7,8-tetrahydro-imidazo[1,2-a]pyridine-3-carboxylic acid benzo[1,3]dioxol-5-ylamide], the “BTX inhibition (rat) (% inhibition)” value is on record as 30%.
As to `CCCCN(C(=O)c1cccc(Cl)c1)c1nc2n(c1C(=O)NC(COC)Cc1ccccc1)CCCC2` (stereo not shown) [Example 86, 2-[butyl-(3-chloro-benzoyl)-amino]-5,6,7,8-tetrahydro-imidazo[1,2-a]pyridine-3-carboxylic acid (1-methoxymethyl-2-phenyl-ethyl)-amide], the “BTX inhibition (rat) (% inhibition)” value amounted to 42%.
With `CCCCN(C(=O)c1cccc(Cl)c1)c1nc2n(c1C(=O)N(C)C1CCN(Cc3c(Cl)cccc3Cl)C1)CCCC2` (stereo not shown) [Example 87, 2-[butyl-(3-chloro-benzoyl)-amino]-5,6,7,8-tetrahydro-imidazo[1,2-a]pyridine-3-carboxylic acid [1-(2,6-dichloro-benzyl)-pyrrolidin-3-yl]-methyl-amide] the figure was 93%; with `CCCCN(C(=O)c1ccc(F)c(F)c1)c1nc2n(c1C(=O)NCc1ccccc1OC(F)(F)F)CCCC2` [Example 88, 2-[butyl-(3,4-difluoro-benzoyl)-amino]-5,6,7,8-tetrahydro-imidazo[1,2-a]pyridine-3-carboxylic acid 2-trifluoromethoxy-benzylamide], 31%.
The same measure for `CCCCN(C(=O)c1cccc(Cl)c1)c1nc2n(c1C(=O)N[C@H](C(=O)OCc1ccccc1)C(C)C)CCCC2` [Example 91]: 48%; for `CCCCN(C(=O)c1cccc(Cl)c1)c1nc2n(c1C(=O)NCCSCc1c(Cl)cccc1Cl)CCCC2` [Example 95, 2-[butyl-(3-chloro-benzoyl)-amino]-5,6,7,8-tetrahydro-imidazo[1,2-a]pyridine-3-carboxylic acid [2-(2,6-dichlor-benzylsulphanyl)-ethyl]-amide]: 68%; for `CCCCN(C(=O)c1ccc(F)c(F)c1)c1nc2n(c1C(=O)NCC1COc3ccccc3O1)CCCC2` (stereo not shown) [Example 96, 2-[butyl-(3,4-difluoro-benzoyl)-amino]-5,6,7,8-tetrahydro-imidazo[1,2-a]pyridine-3-carboxylic acid (2,3-dihydro-benzo[1,4]dioxin-2-ylmethyl)-amide]: 33%.
Consider `CN(C(=O)c1cccc2ccccc12)c1nc2n(c1C(=O)NCc1ccccc1OC(F)(F)F)CCCC2` [Example 99, 2-[methyl-(naphthalene-1-carbonyl)-amino]-5,6,7,8-tetrahydro-imidazo[1,2-a]pyridine-3-carboxylic acid 2-trifluoromethoxy-benzylamide], for which the “BTX inhibition (rat) (% inhibition)” value is on record as 33%.
Regarding `Cc1ccc(C)c(N2CCN(C(=O)c3c(N(C)C(=O)c4cccc(Cl)c4)nc4n3CCCC4)CC2)c1` [Example 100, 3-chloro-N-{3-[4-(2,5-dimethyl-phenyl)-piperazine-1-carbonyl]-5,6,7,8-tetrahydro-imidazo[1,2-a]pyridin-2-yl}-N-methyl-benzamide], the “BTX inhibition (rat) (% inhibition)” value turned out to be 74%.
Consider `CN(C(=O)c1ccccc1)c1nc2n(c1C(=O)NC1CCN(Cc3c(Cl)cccc3Cl)C1)CCCC2` (stereo not shown) [Example 101, 2-(benzoyl-methyl-amino)-5,6,7,8-tetrahydro-imidazo[1,2-a]pyridine-3-carboxylic acid [1-(2,6-dichloro-benzyl)-pyrrolidin-3-yl]-amide], for which the “BTX inhibition (rat) (% inhibition)” value stood at 54%.
As to `CN(C(=O)c1cccc(Cl)c1)c1nc2n(c1C(=O)N1CCN(CCc3ccccc3)CC1)CCCC2` [Example 106, 3-chloro-N-methyl-N-[3-(4-phenethyl-piperazine-1-carbonyl)-5,6,7,8-tetrahydro-imidazo[1,2-a]pyridin-2-yl]-benzamide], the “BTX inhibition (rat) (% inhibition)” value was determined as 40%.
With `CCCCN(C(=O)c1cccc(Cl)c1)c1nc2n(c1C(=O)NCCOc1ccccc1)CCCC2` [Example 107, 2-[butyl-(3-chloro-benzoyl)-amino]-5,6,7,8-tetrahydro-imidazo[1,2-a]pyridine-3-carboxylic acid (2-phenoxy-ethyl)-amide] the figure was 39%; with `CN(C(=O)c1cccc2ccccc12)c1nc2n(c1C(=O)N1CCN(Cc3cc4ccccc4o3)CC1)CCCC2` [Example 108, naphthalene-1-carboxylic acid [3-(4-benzofuran-2-ylmethyl-piperazine-1-carbonyl)-5,6,7,8-tetrahydro-imidazo[1,2-a]pyridin-2-yl]-methyl-amide], 41%; with `CCCCN(C(=O)c1cccc(Cl)c1)c1nc2n(c1C(=O)NCc1cccc(C)c1)CCCC2` [Example 113, 2-[butyl-(3-chloro-benzoyl)-amino]-5,6,7,8-tetrahydro-imidazo[1,2-a]pyridine-3-carboxylic acid 3-methyl-benzylamide], 31%.
In the case of `CCCCN(C(=O)c1ccc(F)c(F)c1)c1nc2n(c1C(=O)N1CCN(c3cc(Cl)ccc3C)CC1)CCCC2` [Example 119, N-butyl-N-{3-[4-(5-chloro-2-methyl-phenyl)-piperazine-1-carbonyl]-5,6,7,8-tetrahydro-imidazo[1,2-a]pyridin-2-yl}-3,4-difluoro-benzamide], the “BTX inhibition (rat) (% inhibition)” value is recorded as 83%.
The same measure for `CCCCN(C(=O)c1cccc(Cl)c1)c1nc2n(c1C(=O)NC1CCCCC1)CCCC2` [Example 120, 2-[butyl-(3-chloro-benzoyl)-amino]-5,6,7,8-tetrahydro-imidazo[1,2-a]pyridine-3-carboxylic acid cyclohexylamide]: 61%; for `CCCCN(C(=O)c1cccc(Cl)c1)c1nc2n(c1C(=O)NC1CCCCC1OCc1ccccc1)CCCC2` (stereo not shown) [Example 124, 2-[butyl-(3-chloro-benzoyl)-amino]-5,6,7,8-tetrahydro-imidazo[1,2-a]pyridine-3-carboxylic acid (2-benzyloxy-cyclohexyl)-amide]: 48%.
